Like-named read-outs stand apart in the source and are kept apart here.
Legend:
[1] = tested on: apomorphine induced clambering of mice; assay: Apomorphine induced clambering assay of mice; settings: for ED50: Mus musculus, po, read-out: apomorphine induced clambering ED50; for improvement of apomorphine induced clambering symptoms (in words): compared to the model group
Method: Apomorphine provided by Sigma Company was dissolved in 0.9% NaCl (containing 0.1% vitamin C) before use, and was freshly formulated before use.
Instruments: self-made clambering cage, chronograph.
After 5 min of adaptation, the behaviors of the mice at 10-11, 20-21, 30-31 min after the injection of apomorphine were observed.

in vivo = settings: both sexes, mouse, in vivo, po
Method: (§1) KM mice (half male and half female) were randomly divided into several groups (with 2-5 mice in each group), which were respectively the 2000 mg/kg groups for each compound, and the solvent group. 0.2 ml/10 g were administered intragastrically. The death of the animals in 3 days were observed. (In the case 3 or more animals survived in 3 days without notable abnormity in their life states, the observation was continued until the assay was completed in 7 days. In the case 3 or more animals died in 3 days, the median lethal dose method was used to determine the LD50).
(§2) KM mice (half male and half female) were randomly divided into several groups (with 4 mice in each group), which were respectively the 1500 mg/kg, 1000 mg/kg, 500 mg/kg groups for each compound, and the solvent group. 0.2 ml/10 g were administered intragastrically, and the death of the animals in 1-3 days were observed.

KM mice = assay: in vivo; settings: po, single intragastric administration in mice
Method: as §1, §2

[2] = tested on: MK-801 high activity mice; assay: MK-801 induced high activity in mice; assay type: in vivo; settings: for ED50: Mus musculus, po, read-out: MK-801 induced high activity ED50; for improvement of MK-801 induced high activity (in words): compared to the model group; for Total moving distance: MK-801 high activity mice, within 90 min
Method: Ascorbic acid was provided by Sinopharm Chemical Reagent Co. Ltd.
MK-801 was produced by Sigma Company, USA; the formulation method: 0.1% vitamin C was used to formulate a 1 mg/ml solution.
Tween 80, with the concentration of 10%.
Mice with qualified body weight were selected, and randomly divided into blank group, model group, positive control group (risperidone group) and drug group. […] 1 H after the administration, 0.1% of ascorbic acid was intraperitoneally injected to the blank group at 0.1 ml/10 g; and the model group, the positive control group (30 min) and the drug group were intraperitoneally injected the MK-801 solution at 0.1 mg/kg. Subsequently, the spontaneous activities of the mice of each group in 90 min were measured.

D2 receptor = D2 receptor (Rattus norvegicus (Rat), UniProt P61169); assay: D2 receptor binding assay (3H-Spiperone, rat brain striatum membrane); settings: read-out: D2 Inhibition %
Chain of D2 receptor (P61169 whole entry): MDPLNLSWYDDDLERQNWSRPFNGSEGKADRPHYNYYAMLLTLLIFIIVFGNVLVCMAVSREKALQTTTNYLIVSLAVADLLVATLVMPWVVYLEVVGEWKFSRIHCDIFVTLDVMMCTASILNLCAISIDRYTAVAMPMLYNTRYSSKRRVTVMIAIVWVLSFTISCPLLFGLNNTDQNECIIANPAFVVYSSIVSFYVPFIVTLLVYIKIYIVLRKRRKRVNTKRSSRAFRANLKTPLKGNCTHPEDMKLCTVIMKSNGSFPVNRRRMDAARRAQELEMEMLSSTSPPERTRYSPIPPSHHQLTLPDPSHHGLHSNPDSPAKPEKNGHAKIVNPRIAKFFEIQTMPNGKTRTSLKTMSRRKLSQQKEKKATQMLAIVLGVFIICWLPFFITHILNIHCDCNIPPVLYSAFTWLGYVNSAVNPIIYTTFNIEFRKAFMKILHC
Method: Brain striatum was rapidly taken, and 2 brain striatums were combined into a centrifuge tube, to which 3 ml of buffer (0.05 M Tris-HCl buffer, containing NaCl 120 mM, KCl 5 mM, MgCl2 1 mM, CaCl2 1 mM) was added, homogenization was conducted for 3-4 s at level 4 for four times, and then 5 ml of buffer was then added. The weight of the homogenized tubes were adjusted using a balance, and centrifugation was conducted at 12000 r, 4° C. for 20 min. The supernatant was discarded, and 3 ml of buffer was added (0.05 M Tris-HCl buffer, containing NaCl 120 mM, KCl 5 mM, MgCl2 1 mM, CaCl2 1 mM). Vortex mixer was used for blending, and then 5 ml of buffer was added (0.05 M Tris-HCl buffer, containing NaCl 120 mM, KCl 5 mM, MgCl2 1 mM, CaCl2 1 mM). Centrifugation was conducted and repeated 3 times. After the centrifugations, the supernatant was discarded, and the pellets were stored at −80° C. for future use.
Beckman LS-6500 Multi-function Liquid Scintillation Counter was used.
(1) The prepared membrane was first applied with appropriate amount of buffer (0.05 M Tris-HCl buffer, containing NaCl 120 mM, KCl 5 mM, MgCl2 1 mM, CaCl2 1 mM), and homogenizer was used for evenly dispersing. 15 tubes were mixed into a 100 ml container, and appropriate amount of homogenized liquid was added to give 50 ml of membrane suspension, which was reserved for future use.
(2) 100 μL of membrane preparation and 100 μL of buffer (0.05 M Tris-HCl buffer, containing NaCl 120 mM, KCl 5 mM, MgCl2 1 mM, CaCl2 1 mM) were added into each reaction tube.
(3) 100 μL of homogenized liquid was added into the total binding tube (TB), 100 μL of Butaclamol (final concentration 10^−5 M) was added into the non-specific binding tube (NB), and 100 μL of the test compound (final concentration 10^−5 M) was added into the specific binding tube (SB) for each compound.
(5) Each of the reaction tubes was incubated at 37° C. for 20 min. After the reaction was completed, the bound ligands were rapidly filtered under reduced pressure, and the ice-chilled assay buffer was used for adequate washing. The filter was taken out and put into a 3 ml scintillation vial, and 2 ml of toluene scintillation solution was added and blended.
(6) The scintillation vials were put into Liquid Scintillation Counter for counting. Inhibitory rate(1%)=[(Total binding tube cpm−compound cpm)/(Total binding tube cpm−non-specific binding tube cpm)]×100%
Each assay for the compounds was conducted in duplicate.

5HT1A receptor = 5HT1A receptor (Rattus norvegicus (Rat), UniProt P19327); assay: 5HT1A receptor binding assay (3H-8-OH-DPAT, rat brain mantle membrane); settings: for inhibition at 10 µM: test compound final concentration 10^-5 M; for IC50: values marked a = IC50
Chain of 5HT1A receptor (P19327 whole entry): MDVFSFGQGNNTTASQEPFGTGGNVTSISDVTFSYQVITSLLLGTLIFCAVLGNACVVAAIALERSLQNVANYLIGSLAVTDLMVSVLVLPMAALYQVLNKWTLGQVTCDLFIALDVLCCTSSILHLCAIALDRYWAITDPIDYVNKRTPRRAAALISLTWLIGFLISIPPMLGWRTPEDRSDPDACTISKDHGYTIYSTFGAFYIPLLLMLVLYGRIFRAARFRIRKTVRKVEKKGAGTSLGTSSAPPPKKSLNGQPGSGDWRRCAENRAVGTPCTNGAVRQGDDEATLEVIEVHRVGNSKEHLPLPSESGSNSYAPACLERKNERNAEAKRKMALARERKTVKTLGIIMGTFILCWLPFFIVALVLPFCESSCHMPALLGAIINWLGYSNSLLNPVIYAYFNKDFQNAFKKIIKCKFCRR
Method: Incubation at 37° C. was conducted for 10 min, the weight of the tubes were adjusted using a balance after incubation. […] Centrifugation was conducted and repeated 3 times.

5HT2A receptor = 5HT2A receptor (Rattus norvegicus (Rat), UniProt P14842); assay: 5HT2A receptor assay ([3H]-Ketanserin, rat brain mantle membrane); assay type: binding; settings: for inhibition at 10 µM: read-out: 5HT2A Inhibition %; for IC50: values marked a = IC50
Chain of 5HT2A receptor (P14842 whole entry): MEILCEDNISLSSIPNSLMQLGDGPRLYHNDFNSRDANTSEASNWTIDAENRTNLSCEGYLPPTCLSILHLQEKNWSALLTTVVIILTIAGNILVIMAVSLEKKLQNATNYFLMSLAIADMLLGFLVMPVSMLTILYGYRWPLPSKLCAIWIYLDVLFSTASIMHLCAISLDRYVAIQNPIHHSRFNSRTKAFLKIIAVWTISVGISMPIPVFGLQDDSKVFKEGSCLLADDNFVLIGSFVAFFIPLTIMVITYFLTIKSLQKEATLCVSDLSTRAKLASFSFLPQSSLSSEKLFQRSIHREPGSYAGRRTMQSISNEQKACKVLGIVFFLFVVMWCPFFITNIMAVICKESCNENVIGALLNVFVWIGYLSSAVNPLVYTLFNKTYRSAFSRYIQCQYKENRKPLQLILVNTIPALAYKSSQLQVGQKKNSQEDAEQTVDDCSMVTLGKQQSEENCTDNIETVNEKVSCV

D3 receptor = D3 receptor (Homo sapiens (Human), UniProt P35462); assay: D3 receptor binding assay ([3H]-Spiperone, HEK-293 cells); settings: test compound final concentration 10 μmol/L
Chain of D3 receptor (P35462 whole entry): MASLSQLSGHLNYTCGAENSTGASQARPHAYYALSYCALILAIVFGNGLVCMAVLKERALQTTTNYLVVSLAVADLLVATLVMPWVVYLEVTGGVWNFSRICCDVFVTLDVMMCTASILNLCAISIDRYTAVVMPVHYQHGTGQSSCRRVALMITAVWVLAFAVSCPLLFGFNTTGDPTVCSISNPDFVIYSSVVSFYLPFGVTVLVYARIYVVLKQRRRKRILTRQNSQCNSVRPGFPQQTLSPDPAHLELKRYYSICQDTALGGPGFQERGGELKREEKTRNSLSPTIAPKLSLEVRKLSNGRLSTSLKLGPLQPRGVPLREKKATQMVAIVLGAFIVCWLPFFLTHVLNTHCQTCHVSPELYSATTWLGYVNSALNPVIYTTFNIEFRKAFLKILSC
Method: After the cells were centrifuged at 1000 rpm for 5 min, the supernatant was discarded, and the cell pellet was collected and stored in a −20° C. fridge for reservation. It was re-suspended with Tris-Cl (pH 7.4) in the assay.
Tris was divided into aliquots by Genetimes Technology Inc.
Competitive binding test for receptors: 20 μl of each of the test compounds and 20 μl of the radioactive ligand together with 160 μl of the receptor proteins were added into the reaction tubes, and the final concentrations of the test compound and the positive drug were all 10 μmol/L. After 50 min of incubation in 30° C. water bath, the tubes were immediately moved to ice bath to terminate the reactions. GF/C glass fiber filter papers were used for rapid sucking filtration on a Millipore cell sample collector, elution buffer (50 mM Tris-HCl, PH 7.4) was applied for 3 ml×3 times, and microwave was applied for 4-5 min for drying. The filter papers were moved into 0.5 ml centrifuge tubes, and 500 μl of lipid-soluble scintillation solution was added. The tubes were allowed to stand still for over 30 min in dark, and the intensities of radioactivity were measured by a counter.

5HT2C = 5HT2C (Rattus norvegicus (Rat), UniProt P08909); assay: 5HT2C receptor binding assay ([3H]-mesulergine, rat brain mantle membrane); settings: test compound final concentration 10^-5 M
Chain of 5HT2C (P08909 33-460 limits assumed): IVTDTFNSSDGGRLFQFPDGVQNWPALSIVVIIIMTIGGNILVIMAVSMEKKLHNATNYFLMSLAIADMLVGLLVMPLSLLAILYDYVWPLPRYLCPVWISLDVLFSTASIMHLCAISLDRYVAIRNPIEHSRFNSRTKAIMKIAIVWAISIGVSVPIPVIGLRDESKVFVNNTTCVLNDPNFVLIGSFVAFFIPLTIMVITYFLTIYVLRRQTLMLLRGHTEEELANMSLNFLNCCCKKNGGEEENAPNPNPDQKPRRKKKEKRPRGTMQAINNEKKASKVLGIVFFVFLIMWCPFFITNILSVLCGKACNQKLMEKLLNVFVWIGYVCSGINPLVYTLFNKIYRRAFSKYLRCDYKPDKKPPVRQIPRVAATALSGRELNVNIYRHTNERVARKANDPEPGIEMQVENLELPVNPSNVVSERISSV
Method: Incubation at 37° C. was conducted for 10 min, the weight of the tubes were adjusted using a balance after the incubation. […] Centrifugation was conducted (repeated 3 times).

[3] = tested on: four receptors (D2, D3, 5-HT1A and 5-HT2A); assay: In vitro receptor binding assays, summary over four receptors; settings: in vitro assay
Catalepsy assay in mice = assay type: in vivo; settings: both sexes, Kunming (KM), mouse, in vivo; po, mice
Method: (§3) The durations for the mice to maintain the posture with the two forepaws on the bars were recorded, and 30 s of spasticity without moving was considered as the positive response. In the case the forepaws of the mice were not put down persistently, the observation was terminated at 60 s. The numbers of animals with positive response in each of the compound dosage groups were counted.

KM mice (catalepsy) = assay: Catalepsy assay in mice; assay type: in vivo; settings: for catalepsy/MK-801 / catalepsy/apomorphine: ratio of ED50 values
Method: as §3

[4] = single intragastric administration in mice, read-out: LD50

## Cc1nc2n(c(=O)c1CCN1CCC(c3noc4cc(F)ccc34)CC1)CCCC2 [risperidone, reference compound]
[1]
  ED50: 0.02 mg/kg
  improvement of apomorphine induced clambering symptoms (in words): effectively improve
In vivo; [4]
  LD50: 82.1 mg/kg
KM mice
  LD50: 82.1 mg/kg
[2]
  ED50: 0.01 mg/kg
  improvement of MK-801 induced high activity (in words): significantly improve

## c1ccc2c(N3CCN(CCCSc4nnc(-c5ccncc5)o4)CC3)nsc2c1 [Compound 15]
D2 receptor
  inhibition at 10 µM: 88.1%
5HT1A receptor
  inhibition at 10 µM: 114%
5HT2A receptor
  inhibition at 10 µM: 95.1%

## COc1ccc(-c2nnc(SCCCN3CCN(c4nsc5ccccc45)CC3)o2)cc1 [Compound 3]
D2 receptor
  inhibition at 10 µM: 108%
D3 receptor
  inhibition at 10 µM: 99.5%
5HT1A receptor
  IC50: 8.82 nM
5HT2A receptor
  IC50: 2.27 nM
5HT2C
  inhibition at 10 µM: 98.5%

## Fc1ccc2c(C3CCN(CCCSc4nnc(-c5ccncc5)o4)CC3)noc2c1 [Compound 16]
D2 receptor
  inhibition at 10 µM: 45.9%
5HT1A receptor
  inhibition at 10 µM: 86.7%
5HT2A receptor
  inhibition at 10 µM: 107%

## FC(F)(F)c1ccc(-c2nnc(SCCCN3CCN(c4nsc5ccccc45)CC3)o2)cc1 [Compound 7, 2-((3-(4-(3-benzisothiazole)-1-piperazinyl)propylthio)-5-(4-trifluoromethyl)phenyl)-1,3,4-oxadiazole]
D2 receptor
  inhibition at 10 µM: 80.6%
5HT1A receptor
  inhibition at 10 µM: 113%
5HT2A receptor
  inhibition at 10 µM: 98.8%

## Fc1ccc2c(C3CCN(CCCSc4nnc(-c5cccc6ccccc56)o4)CC3)noc2c1 [Compound 12]
[3]
  affinities to D2, D3, 5-HT1A and 5-HT2A receptors (in words): relatively stronger affinities
  affinity compared to aripiprazole (in words): equivalent to aripiprazole
D2 receptor
  inhibition at 10 µM: 98.4%
Catalepsy assay in mice
  ED50: 300 mg/kg
KM mice (catalepsy)
  EPS at effective dosage (in words): did not cause EPS
  catalepsy/MK-801: 20.00
  catalepsy/apomorphine: 74.44
D3 receptor
  inhibition at 10 µM: 100%
5HT1A receptor
  IC50: 175 nM
[1]
  ED50: 4.03 mg/kg
  improvement of apomorphine induced clambering symptoms (in words): effectively improve
5HT2A receptor
  IC50: 122 nM
In vivo; [4]
  LD50: > 2000 mg/kg
[2]; 10 mg/kg intragastric
  Total moving distance: 20521.27 ± 7898.02 cm
[2]; 20 mg/kg intragastric
  Total moving distance: 12936.50 ± 3627.24 cm
[2]; 30 mg/kg intragastric
  Total moving distance: 16163.49 ± 7769.48 cm
[2]; 50 mg/kg intragastric
  Total moving distance: 10298.82 ± 4269.95 cm
[2]; 100 mg/kg intragastric
  Total moving distance: 5665.86 ± 1799.20 cm
[2]; mice
  ED50: 15 mg/kg
[2]
  improvement of MK-801 induced high activity (in words): significantly improve
5HT2C
  inhibition at 10 µM: 60.6%

## O=C1CCc2ccc(OCCCCN3CCN(c4cccc(Cl)c4Cl)CC3)cc2N1 [aripiprazole]
In vivo; KM
  LD50: 1400 mg/kg

## O=C1Cc2cc(CCN3CCN(c4nsc5ccccc45)CC3)c(Cl)cc2N1 [ziprasidone]
In vivo; [4]
  LD50: 2000 mg/kg

## c1ccc(-c2nnc(SCCCN3CCN(c4nsc5ccccc45)CC3)o2)cc1 [Compound 1]
D2 receptor
  inhibition at 10 µM: 62.4%
5HT1A receptor
  inhibition at 10 µM: 17.9%
5HT2A receptor
  inhibition at 10 µM: 87.1%

## Fc1ccc2c(C3CCN(CCCSc4nnc(-c5ccc(C(F)(F)F)cc5)o4)CC3)noc2c1 [Compound 8, 2-((3-(4-(3-(6-fluoro-benzisoxazole))-1-piperidyl)propylthio)-5-(4-trifluoromethyl)phenyl)-1,3,4-oxadiazole]
D2 receptor
  inhibition at 10 µM: 105%
5HT1A receptor
  inhibition at 10 µM: 20.8%
5HT2A receptor
  inhibition at 10 µM: 101%

## Clc1ccc(-c2nnc(SCCCN3CCN(c4nsc5ccccc45)CC3)o2)cc1 [Compound 5]
D2 receptor
  inhibition at 10 µM: 92.7%
D3 receptor
  inhibition at 10 µM: 98.7%
5HT1A receptor
  IC50: 26.9 nM
5HT2A receptor
  IC50: 62.5 nM
5HT2C
  inhibition at 10 µM: 56.5%

## c1csc(-c2nnc(SCCCN3CCN(c4nsc5ccccc45)CC3)o2)c1 [Compound 13]
D2 receptor
  inhibition at 10 µM: 47.8%
5HT1A receptor
  inhibition at 10 µM: 95.9%
5HT2A receptor
  inhibition at 10 µM: 101%

## Fc1ccc(-c2nnc(SCCCN3CCN(c4nsc5ccccc45)CC3)o2)cc1 [Compound 9, 2-((3-(4-(3-benzisothiazole)-1-piperazinyl)propylthio)-5-(4-fluoro)phenyl)-1,3,4-oxadiazole]
D2 receptor
  inhibition at 10 µM: 84.8%
5HT1A receptor
  inhibition at 10 µM: 107%
5HT2A receptor
  inhibition at 10 µM: 103%

## c1ccc2c(-c3nnc(SCCCN4CCN(c5nsc6ccccc56)CC4)o3)cccc2c1 [Compound 11]
[3]
  affinities to D2, D3, 5-HT1A and 5-HT2A receptors (in words): relatively stronger affinities
  affinity compared to aripiprazole (in words): equivalent to aripiprazole
D2 receptor
  inhibition at 10 µM: 25.7%
5HT1A receptor
  inhibition at 10 µM: 45.8%
5HT2A receptor
  inhibition at 10 µM: 91%

## Fc1ccc2c(C3CCN(CCCSc4nnc(-c5ccccc5)o4)CC3)noc2c1 [Compound 2]
D2 receptor
  inhibition at 10 µM: 77.5%
5HT1A receptor
  inhibition at 10 µM: 6.1%
5HT2A receptor
  inhibition at 10 µM: 11%

## Fc1ccc(-c2nnc(SCCCN3CCC(c4noc5cc(F)ccc45)CC3)o2)cc1 [Compound 10, 2-((3-(4-(3-(6-fluoro-benzisoxazole))-1-piperidyl)propylthio)-5-(4-fluoro)phenyl)-1,3,4-oxadiazole]
D2 receptor
  inhibition at 10 µM: 88.6%
5HT1A receptor
  inhibition at 10 µM: 56.4%
5HT2A receptor
  inhibition at 10 µM: 117%

## Fc1ccc2c(C3CCN(CCCSc4nnc(-c5ccc(Cl)cc5)o4)CC3)noc2c1 [Compound 6]
D2 receptor
  inhibition at 10 µM: 104%
Catalepsy assay in mice
  ED50: 92.7 mg/kg
KM mice (catalepsy)
  EPS at effective dosage (in words): did not cause EPS
  catalepsy/MK-801: 28.02
  catalepsy/apomorphine: 22.62
D3 receptor
  inhibition at 10 µM: 101%
5HT1A receptor
  IC50: 19.9 nM
[1]
  ED50: 4.1 mg/kg
  improvement of apomorphine induced clambering symptoms (in words): effectively improve
5HT2A receptor
  IC50: 15.1 nM
In vivo; [4]
  LD50: > 2000 mg/kg
[2]; 3 mg/kg intragastric
  Total moving distance: 20912.66 ± 9887.01 cm
[2]; 5 mg/kg intragastric
  Total moving distance: 15745.74 ± 5475.41 cm
[2]; 10 mg/kg intragastric
  Total moving distance: 12997.51 ± 7859.06 cm
[2]; 20 mg/kg intragastric
  Total moving distance: 6741.35 ± 2251.52 cm
[2]; 30 mg/kg intragastric
  Total moving distance: 8454.72 ± 7864.50 cm
[2]; mice
  ED50: 3.31 mg/kg
[2]
  improvement of MK-801 induced high activity (in words): significantly improve
5HT2C
  inhibition at 10 µM: 68.1%

## COc1ccc(-c2nnc(SCCCN3CCC(c4noc5cc(F)ccc45)CC3)o2)cc1 [Compound 4]
D2 receptor
  inhibition at 10 µM: 113%
Catalepsy assay in mice
  ED50: 640 mg/kg
KM mice (catalepsy)
  EPS at effective dosage (in words): did not cause EPS
  catalepsy/MK-801: 41.56
  catalepsy/apomorphine: 395.30
D3 receptor
  inhibition at 10 µM: 101%
5HT1A receptor
  IC50: 12.7 nM
[1]
  ED50: 1.62 mg/kg
  improvement of apomorphine induced clambering symptoms (in words): effectively improve
5HT2A receptor
  IC50: 0.51 nM
In vivo; [4]
  LD50: > 2000 mg/kg
[2]; 3 mg/kg intragastric
  Total moving distance: 24988.83 ± 7617.21 cm
[2]; 5 mg/kg intragastric
  Total moving distance: 22872.82 ± 10538.51 cm
[2]; 10 mg/kg intragastric
  Total moving distance: 13574.51 ± 5340.38 cm
[2]; 30 mg/kg intragastric
  Total moving distance: 7773.56 ± 3681.67 cm
[2]; 100 mg/kg intragastric
  Total moving distance: 6954.61 ± 4931.26 cm
[2]; mice
  ED50: 15.4 mg/kg
[2]
  improvement of MK-801 induced high activity (in words): significantly improve
5HT2C
  inhibition at 10 µM: 82.1%

Reference: US8993575B2, “[1,3,4] oxadiazole derivative and application thereof” (Huazhong University of Science & Technology, priority 2011, dated 2015)
